Common to all, as to format: cell-based
One assay addresses human KV7.1 (Homo sapiens, UniProt P51787). Put plainly: KV7.1 86Rb+ efflux HTS. As to conditions: for inhibition at 10 µM: CHO, read-out: Average percent inhibition at 10 μM (KCNQ1); for Average percent inhibition at 10 μM (KCNQ1): n=2, CHO cells, 86Rb+ efflux, normalized to 10 μM chromanol 293B control.
Assay [1] concerns the target T1, Nav1.8 (Homo sapiens, UniProt Q9Y5Y9). Briefly: Nav1.8 FLIPR HTS. As to conditions: HEK293, read-out: Average percent inhibition at 10 μM (Nav1.8).
For assay [2], the target named is T1, Nav1.8. Briefly: Nav1.8 automated patch clamp. Background: Patch clamp records ionic current or voltage across a cell membrane.

pIC50: −log10 of the molar value. Structures can show the parent of a compound that is named as a salt.

T1 sequence (Q9Y5Y9 whole entry): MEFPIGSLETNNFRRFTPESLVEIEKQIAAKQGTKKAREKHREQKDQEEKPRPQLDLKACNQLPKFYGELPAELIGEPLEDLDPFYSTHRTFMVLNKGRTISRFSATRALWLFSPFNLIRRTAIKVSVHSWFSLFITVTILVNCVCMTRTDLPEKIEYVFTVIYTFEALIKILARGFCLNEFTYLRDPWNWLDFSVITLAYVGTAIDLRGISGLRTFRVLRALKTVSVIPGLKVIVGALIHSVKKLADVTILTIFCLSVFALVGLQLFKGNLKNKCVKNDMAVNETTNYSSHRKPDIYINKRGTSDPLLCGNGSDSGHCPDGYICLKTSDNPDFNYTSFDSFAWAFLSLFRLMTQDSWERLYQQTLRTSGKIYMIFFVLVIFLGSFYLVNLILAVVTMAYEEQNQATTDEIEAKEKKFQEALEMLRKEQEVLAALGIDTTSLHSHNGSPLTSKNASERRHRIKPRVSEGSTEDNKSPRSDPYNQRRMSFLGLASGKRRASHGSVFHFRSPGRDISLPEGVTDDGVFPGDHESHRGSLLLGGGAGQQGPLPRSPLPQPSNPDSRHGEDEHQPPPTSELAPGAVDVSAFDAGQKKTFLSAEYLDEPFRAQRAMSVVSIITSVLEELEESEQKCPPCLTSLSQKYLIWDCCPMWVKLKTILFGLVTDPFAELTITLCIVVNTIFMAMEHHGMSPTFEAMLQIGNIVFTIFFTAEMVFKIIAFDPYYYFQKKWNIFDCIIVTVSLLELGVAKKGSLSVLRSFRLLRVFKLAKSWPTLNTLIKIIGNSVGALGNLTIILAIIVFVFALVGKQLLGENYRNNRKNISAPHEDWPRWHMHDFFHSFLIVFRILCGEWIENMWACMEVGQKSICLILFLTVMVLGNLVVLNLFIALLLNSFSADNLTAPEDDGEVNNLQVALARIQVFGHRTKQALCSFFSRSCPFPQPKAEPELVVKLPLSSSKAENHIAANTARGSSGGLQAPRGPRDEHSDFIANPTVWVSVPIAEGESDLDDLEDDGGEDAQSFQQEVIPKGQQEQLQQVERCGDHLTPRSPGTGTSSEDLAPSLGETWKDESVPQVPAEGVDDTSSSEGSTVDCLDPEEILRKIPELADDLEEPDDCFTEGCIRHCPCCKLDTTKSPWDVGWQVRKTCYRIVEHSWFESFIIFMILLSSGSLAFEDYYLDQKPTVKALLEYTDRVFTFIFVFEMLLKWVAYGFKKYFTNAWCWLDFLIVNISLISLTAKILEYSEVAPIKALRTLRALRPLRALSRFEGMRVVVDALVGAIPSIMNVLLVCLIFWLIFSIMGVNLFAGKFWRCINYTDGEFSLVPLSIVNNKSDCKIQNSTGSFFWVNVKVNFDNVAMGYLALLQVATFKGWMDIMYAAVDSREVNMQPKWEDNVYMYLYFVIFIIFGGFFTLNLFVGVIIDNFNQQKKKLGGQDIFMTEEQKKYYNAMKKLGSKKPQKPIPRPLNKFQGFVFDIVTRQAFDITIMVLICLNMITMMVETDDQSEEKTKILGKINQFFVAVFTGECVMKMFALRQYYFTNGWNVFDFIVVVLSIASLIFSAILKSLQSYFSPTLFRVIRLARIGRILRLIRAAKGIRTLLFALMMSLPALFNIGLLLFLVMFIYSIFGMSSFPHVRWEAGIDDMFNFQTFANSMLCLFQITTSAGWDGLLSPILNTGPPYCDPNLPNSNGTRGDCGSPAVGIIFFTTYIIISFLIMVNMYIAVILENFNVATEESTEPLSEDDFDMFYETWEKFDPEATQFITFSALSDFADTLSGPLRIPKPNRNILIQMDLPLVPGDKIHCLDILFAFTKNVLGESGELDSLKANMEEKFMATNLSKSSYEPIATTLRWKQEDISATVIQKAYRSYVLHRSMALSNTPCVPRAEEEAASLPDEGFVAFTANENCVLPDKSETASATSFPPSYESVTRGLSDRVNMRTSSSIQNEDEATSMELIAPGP
Sequence of human KV7.1 (P51787 whole entry): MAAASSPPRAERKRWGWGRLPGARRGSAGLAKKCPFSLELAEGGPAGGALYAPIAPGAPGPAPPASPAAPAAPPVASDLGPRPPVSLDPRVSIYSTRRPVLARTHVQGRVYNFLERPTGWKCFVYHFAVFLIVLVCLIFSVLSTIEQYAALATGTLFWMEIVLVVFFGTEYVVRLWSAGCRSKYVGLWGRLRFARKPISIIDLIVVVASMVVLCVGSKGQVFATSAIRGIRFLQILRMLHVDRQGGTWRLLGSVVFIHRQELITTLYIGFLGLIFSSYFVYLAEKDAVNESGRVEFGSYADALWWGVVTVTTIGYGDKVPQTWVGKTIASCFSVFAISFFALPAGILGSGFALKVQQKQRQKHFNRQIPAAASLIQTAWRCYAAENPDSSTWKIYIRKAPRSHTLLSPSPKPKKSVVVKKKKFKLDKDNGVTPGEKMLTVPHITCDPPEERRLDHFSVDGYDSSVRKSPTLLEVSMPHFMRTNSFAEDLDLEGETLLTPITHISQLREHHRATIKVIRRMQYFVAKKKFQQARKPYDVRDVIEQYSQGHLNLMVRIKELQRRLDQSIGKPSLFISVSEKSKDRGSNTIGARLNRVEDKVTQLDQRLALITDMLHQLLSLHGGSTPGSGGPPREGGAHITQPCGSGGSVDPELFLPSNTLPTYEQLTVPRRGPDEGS

`CC1(C)O[C@@H]2[C@@H](CO[C@@]3(COS(N)(=O)=O)OC(C)(C)O[C@@H]23)O1` [Topiramate]: the inhibition at 10 µM on human KV7.1 was 44.3%.

Consider `O=C(OCCOCCO)c1ccccc1Nc1cccc(C(F)(F)F)c1` [Etofenamate], for which the inhibition at 10 µM at human KV7.1 was found to be 51.8%.

As for `CSc1nc2cc(Cl)c(Oc3cccc(Cl)c3Cl)cc2[nH]1` [Triclabendazole], the inhibition at 10 µM at human KV7.1 is 76%. As to `c1ccc2c(c1)Nc1ccccc1S2` [Phenothiazine], at human KV7.1, the inhibition at 10 µM stood at 59.8%.

In the case of `COc1ccc(C(=O)c2ccccc2)c(O)c1` [Oxybenzone], the inhibition at 10 µM on human KV7.1 is 57.4%. As for `CCc1oc2ccccc2c1C(=O)c1cc(Br)c(O)c(Br)c1` [Benzbromarone], the inhibition at 10 µM on human KV7.1 came to 58.1%. Regarding `C[C@]12CC[C@@H]3c4ccc(O)cc4CC[C@H]3[C@@H]1CC[C@@H]2O` [Estradiol-17 beta], at human KV7.1, the “Average percent inhibition at 10 μM (KCNQ1)” value (from here on “Average percent inhibition”) is 56.3%.

`C[C@H](CCC(=O)O)[C@H]1CC[C@H]2[C@@H]3CC[C@@H]4C[C@H](O)CC[C@]4(C)[C@H]3CC[C@]12C` [Lithocholic acid]: at human KV7.1, the inhibition at 10 µM is 80.8%. Turning to `COC(=O)C1=C(C)NC(C)=C(C(=O)OC2CCCN(Cc3ccccc3)C2)C1c1cccc([N+](=O)[O-])c1` (stereo not shown) [Benidipine hydrochloride], the inhibition at 10 µM at Nav1.8 [1] turned out to be 113%; on human KV7.1, 51.1%. On Nav1.8 [2], the pIC50 is 5.36. Regarding `C[C@]12CC[C@H]3C(=CCc4cc(O)ccc43)[C@@H]1CCC2=O` [Equilin], at human KV7.1, the inhibition at 10 µM turned out to be 64.6%.

On to `CC(=O)O[C@H]1CC[C@@]2(C)C(=CC[C@@H]3[C@@H]2CC[C@]2(C)C(=O)CC[C@@H]32)C1` [Dehydroisoandosterone 3-acetate], for which the “Average percent inhibition” value at human KV7.1 is listed as 52.9%. In the case of `Cc1cccc(N(C)C(=S)Oc2ccc3ccccc3c2)c1` [Tolnaftate], the inhibition at 10 µM on human KV7.1 is 69.4%.

In the case of `CC(C)OC(=O)CCC/C=C\C[C@@H]1[C@@H](CC[C@@H](O)CCc2ccccc2)[C@H](O)C[C@@H]1O` [Latanoprost], on human KV7.1, the inhibition at 10 µM is 63.7%. The same measure, in the same setting: the same measure for `Clc1ccc(C(Cn2ccnc2)OCc2csc3c(Cl)cccc23)c(Cl)c1` (stereo not shown) [Sertaconazole nitrate]: 58.6%; for `C/C=C(/C(=C/C)c1ccc(O)cc1)c1ccc(O)cc1` [Dienestrol]: 61.3%. On the same count and under the same terms, the same measure for `CC(C)c1c(CN(C)C(C)Cc2ccccc2)n(C)n(-c2ccccc2)c1=O` (stereo not shown) [Famprofazone]: 50.7%.

For the compound `CN1CCCN(C(c2ccccc2)c2ccc(Cl)cc2)CC1.Cl.Cl` (stereo not shown) [Homochlorcyclizine dihydrochloride], on human KV7.1, the “Average percent inhibition” value came out at 43.5%. For the compound `CC(C)OC(=O)C(C)(C)Oc1ccc(C(=O)c2ccc(Cl)cc2)cc1` [Fenofibrate], at human KV7.1, the inhibition at 10 µM is 64%. As for `CCOC1O[C@H]([C@@H](COCc2ccccc2)OCc2ccccc2)[C@H](OCc2ccccc2)[C@H]1O` (stereo partly shown) [Tribenoside], the inhibition at 10 µM was determined as 86.2% on Nav1.8 [1] and 48.8% on human KV7.1. Regarding `Clc1ccc(C(Cn2ccnc2)OCc2c(Cl)cccc2Cl)c(Cl)c1` (stereo not shown) [Isoconazole], the inhibition at 10 µM on human KV7.1 turned out to be 61.2%.

For `CCOC(=O)C1=C(C)NC(C)=C(C(=O)OC)C1c1cccc([N+](=O)[O-])c1` (stereo not shown) [Nitrendipine], the inhibition at 10 µM at human KV7.1 worked out at 46.1%. With `Oc1cc(Cl)ccc1Oc1ccc(Cl)cc1Cl` [Triclosan], the inhibition at 10 µM on Nav1.8 [1] worked out at 87.8%; at human KV7.1, 74%. For `CN1CCN(C(c2ccccc2)c2ccccc2)CC1.Cl` [Cyclizine hydrochloride], the “Average percent inhibition” value at human KV7.1 amounted to 45.9%. As for `COc1ccc(Cc2nccc3cc(OC)c(OC)cc23)cc1OC` [Papaverine hydrochloride], the inhibition at 10 µM at human KV7.1 was 45.6%. Same read-out and setting: the same measure for `Clc1ccc(CCC(Cn2ccnc2)Sc2c(Cl)cccc2Cl)cc1` (stereo not shown) [Butoconazole nitrate]: 67%. Turning to `CC(=O)SCC(Cc1ccccc1)C(=O)NCC(=O)OCc1ccccc1` (stereo not shown) [Racecadotril], the figures for the inhibition at 10 µM at Nav1.8 [1] and on human KV7.1 were 94.8% and 46.4%, respectively. Take `COC(=O)C1=C(C#N)NC(C)=C(C(=O)OC(C)C)C1c1cccc([N+](=O)[O-])c1` (stereo not shown) [Nilvadipine]: the inhibition at 10 µM on Nav1.8 [1] is 87.9%. The pIC50 at Nav1.8 [2] was 6.22.

Regarding `Clc1ccc(C(c2ccccc2Cl)C(Cl)Cl)cc1` (stereo not shown) [Mitotane], the inhibition at 10 µM on human KV7.1 stood at 49.5%. For the compound `COC1=C(OC)C(=O)C(CCCCCCCCCCO)=C(C)C1=O` [Idebenone], the inhibition at 10 µM on human KV7.1 was 59%. On to `CC/C(=C(/CC)c1ccc(O)cc1)c1ccc(O)cc1` [Diethylstilbestrol], for which the figures for the inhibition at 10 µM at Nav1.8 [1] and at human KV7.1 were 99.5% and 90.2%, respectively. For the compound `CCSc1ccc2c(c1)N(CCCN1CCN(C)CC1)c1ccccc1S2.O=C(O)CC(O)C(=O)O.O=C(O)CC(O)C(=O)O` [Thiethylperazine dimalate], the “Average percent inhibition” value at human KV7.1 was found to be 56.9%. Take `COC(=O)C1=C(C)NC(C)=C(C(=O)OCCN(C)Cc2ccccc2)C1c1cccc([N+](=O)[O-])c1` (stereo not shown) [Nicardipine hydrochloride]: the inhibition at 10 µM at Nav1.8 [1] was 123%; on human KV7.1 it was 50.7%. Also, the pIC50 against Nav1.8 [2] was 6.22.

In the case of `O=C(c1ccc(OCCN2CCCCC2)cc1)c1c(-c2ccc(O)cc2)sc2cc(O)ccc12` [Raloxifene hydrochloride], the figures for the inhibition at 10 µM on Nav1.8 [1] and on human KV7.1 were 88.4% and 43.3%, respectively. For the compound `NS(=O)(=O)c1cc2c(cc1Cl)NC(CC1CCCC1)NS2(=O)=O` (stereo not shown) [Cyclopenthiazide], the inhibition at 10 µM on human KV7.1 worked out at 68.3%. As to `CCOc1ccc(Cc2nccc3cc(OCC)c(OCC)cc23)cc1OCC` [Ethaverine hydrochloride], the inhibition at 10 µM on human KV7.1 worked out at 86.9%. The same measure, in the same setting: the same measure for `Clc1ccccc1C(c1ccccc1)(c1ccccc1)n1ccnc1` [Clotrimazole]: 46.3%; for `CS(=O)(=O)Nc1ccc([N+](=O)[O-])cc1Oc1ccccc1` [Nimesulide]: 47.9%; for `COc1cccc(N(C)C(=S)Oc2ccc3c(c2)CCCC3)n1` [Liranaftate]: 62.8%. For `C#C[C@]1(O)CC[C@H]2[C@@H]3[C@H](C)CC4=C(CCC(=O)C4)[C@H]3CC[C@@]21C` [Tibolone], the inhibition at 10 µM on human KV7.1 came out at 87.6%. For `CC[C@H](c1ccc(O)cc1)[C@@H](CC)c1ccc(O)cc1` [Hexestrol], the results for the inhibition at 10 µM on Nav1.8 [1] and on human KV7.1 were 91.6% and 82%, respectively.

For `Clc1ccc(COC(Cn2ccnc2)c2ccc(Cl)cc2Cl)cc1` (stereo not shown) [Econazole nitrate], the inhibition at 10 µM at human KV7.1 is 85.6%.

For `COC(=O)C1=C(C)NC(C)=C(C(=O)OCC(C)C)C1c1ccccc1[N+](=O)[O-]` (stereo not shown) [Nisoldipine], the inhibition at 10 µM at human KV7.1 was determined as 48%. On the same count and under the same terms, to `Fc1ccc([C@@H]2CCNC[C@H]2COc2ccc3c(c2)OCO3)cc1` [Paroxetine Hydrochloride] belongs 59.9%; to `C#C[C@]1(O)CC[C@H]2[C@@H]3CCc4cc(O)ccc4[C@H]3CC[C@@]21C` [Ethinylestradiol], 75.8%. Still for that read-out and setting: the same measure for `C[C@]12Cc3c[nH]nc3C[C@@H]1CC[C@@H]1[C@@H]2CC[C@@]2(C)[C@H]1CC[C@]2(C)O` [Stanozolol]: 43.6%.

For `COCCOC(=O)C1=C(C)NC(C)=C(C(=O)OC(C)C)C1c1cccc([N+](=O)[O-])c1` (stereo not shown) [Nimodipine], the inhibition at 10 µM on Nav1.8 [1] turned out to be 96.1%. The same compound showed a pIC50 on Nav1.8 [2] of 5.92.

In the case of `CCOC(=O)[C@H](CCc1ccccc1)N[C@H]1CCc2ccccc2N(CC(=O)O)C1=O` [Benazepril hydrochloride], at human KV7.1, the inhibition at 10 µM turned out to be 44.8%. For the compound `CCN1CCN(C(=O)N[C@@H](C(=O)N[C@@H]2C(=O)N3[C@@H]2SC(C)(C)[C@@H]3C(=O)O)c2ccccc2)C(=O)C1=O` [Piperacillin sodium salt], on human KV7.1, the inhibition at 10 µM was found to be 43.5%. Still for that read-out and setting: the same measure for `C#C[C@]1(OC(C)=O)CC[C@H]2[C@@H]3CCC4=C[C@@H](OC(C)=O)CC[C@@H]4[C@H]3CC[C@@]21C` [Ethynodiol diacetate]: 88%; for `O=C1Nc2ccc(Cl)cc2[C@@](C#CC2CC2)(C(F)(F)F)O1` [Efavirenz]: 80.3%. For the compound `O=C(CCCN1CCC2(CC1)C(=O)NCN2c1ccccc1)c1ccc(F)cc1` [Spiperone], the inhibition at 10 µM at Nav1.8 [1] was determined as 82%.

`Cc1c(C)c2c(c(C)c1O)CCC(C)(COc1ccc(CC3SC(=O)NC3=O)cc1)O2` (stereo not shown) [Troglitazone]: at human KV7.1, the inhibition at 10 µM is 73%. As to `O=C1[C@H]2CCCC[C@H]2C(=O)N1CCCCN1CCN(c2nsc3ccccc23)CC1` [Perospirone], at Nav1.8 [1], the inhibition at 10 µM turned out to be 89.7%. Turning to `Clc1ccc(COC(Cn2ccnc2)c2ccc(Cl)cc2Cl)c(Cl)c1` (stereo not shown) [Miconazole], the inhibition at 10 µM at human KV7.1 came out at 79.8%. With `C[C@]12CC[C@@H]3c4ccc(O)cc4CC[C@H]3[C@@H]1CCC2=O` [Estrone], the inhibition at 10 µM at Nav1.8 [1] came out at 78.2%. On to `NC(=O)OCC(COC(N)=O)c1ccccc1` [Felbamate], for which the inhibition at 10 µM on Nav1.8 [1] came out at 78.6%.

Regarding `Clc1ccc(C(Cn2ccnc2)OCc2ccsc2Cl)c(Cl)c1` (stereo not shown) [Tioconazole], the inhibition at 10 µM on human KV7.1 was 53.5%. Take `CCN(CC)CCOC(=O)C(c1ccccc1)c1ccccc1` [Adiphenine hydrochloride]: the inhibition at 10 µM on Nav1.8 [1] amounted to 90.4%.

In general, inhibition refers to the drop in the measured response relative to a control, in per cent. By pIC50 is commonly meant the IC50 on a negative log10 scale, so that one unit is a factor of ten. A high value points to a low IC50.

The record behind these values is publication PMC6814258 (Pharmaceutical research, 2019).
